Data taken from patent US11465965B2, “Double-headed protease inhibitor” (UBE INDUSTRIES, LTD., priority 2017, dated 2022).
Where a name gives a salt, the structure may show the parent alone. Read-outs that look alike come from different tables or passages of the source.

Assays:
[1] = biological target: T1, Human recombinant enteropeptidase (Homo sapiens, UniProt P98073); assay: Human enteropeptidase inhibition test; format: biochemical; settings: read-out: Inhibition rate (enteropeptidase); for inhibition at 0.001 µM: compound concentration 1 nM
T1 construct: purchased BIO Vision Inc. 7529-50
How it was run: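 Recombinant human enteropeptidase in 50 mM tricine pH 8.0, 0.01% Tween 20, 10 mM CaCl2 cleaving 1.5 μM 5FAM/CPQ2-quenched peptide substrate (stock solution concentration). Fluorescence (ex 485/em 535 nm) read 20 min after enzyme addition; % inhibition versus no-compound and no-enzyme controls.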

HFD-fed mouse = assay: Fecal protein concentration-increasing test by single administration using HFD-fed mouse; format: in vivo; settings: 24 h, HFD-fed mice, vs vehicle group, read-out: Ratio for an increase of protein concentration in feces; for response vs control in vivo at 30 mg/kg: single oral dose 30 mg/kg
Source text: (Test Example 3): Fecal Protein Concentration-Increasing Test by Single Administration Using HFD-Fed Mouse
High fat diet-fed (HFD-fed) mice (D-12492 diet, male, ICR, 6 week old) were orally administered with a 0.5 W/V % methylcellulose suspension comprising each test compound (Compound administration group, 4 or 5 mice/group) or a 0.5 W/V % methylcellulose suspension (Compound non-administration group (Vehicle group), 5, 6, or 7 mice/group), and whole feces of the day were collected. Dried feces were dissolved into a 0.5N aqueous sodium hydroxide solution, followed by centrifugation at 3500 rpm. Then each protein concentration in the resulting supernatant was determined (Lowry method), and the ratio for an increase of protein concentration in feces was calculated by the following equation using the protein concentration in feces contained in 1 g of feces (mg/g feces). Ratio for an increase of protein concentration in feces−(average protein concentration in feces of Compound administration group)[…](average protein concentration in feces of Compound non-administration group)

DIO mouse = assay: Anti-obesity effect test using DIO mouse; format: in vivo; settings: 336 h, DIO mice, vs vehicle group, read-out: Weight loss rate; for inhibition in vivo at 25 mg/kg: oral 25 mg/kg once daily for 2 weeks
Protocol: (Test Example 4): Anti-Obesity Effect Test Using DIO Mouse
Diet-induced obesity (DIO) mice (D-12492 diet, male, C57BL-DIO, 26 to 28-week old) were orally administered with a 0.5 W/V % methylcellulose suspension comprising each test compound (Compound administration group, 5 or 6 mice/group) or a 0.5 W/V % methylcellulose suspension (Compound non-administration group (Vehicle group), 6 mice/group) once daily for 2 weeks. Weight loss rate was calculated by the following equation. Weight loss rate (%) of each Compound administration group−(1−average weight at the last day of the test of each Compound administration group/average weight at the last day of the test of Vehicle group)×100

[2] = Rat pharmacokinetic (PK) test (plasma concentration after oral administration); settings: male, SD
Protocol: Each test compound was suspended in a 0.5 W/V % methylcellulose 400 solution to prepare a suspension, and the resulting suspension was orally administered to a male SD rat of 7 to 8-week old (weight: 180 to 250 g). After 0.25, 0.5, 1, 2, 4, 8, and 24 hour(s) of the administration of each test compound, blood (EDTA-added blood) was collected from jugular vein under isoflurane inhalation anesthesia. […] To the resulting blood plasma was added acetonitrile, a mixed solvent of acetonitrile and water (1:1 (V/V)), or a mixed solvent of acetonitrile and 0.1 M hydrochloric acid (1:1 (V/V)), then the resulting mixture was mixed at 750 rpm for 3 minutes in a shaker, and subjected to centrifugal separation at 3700 rpm for 2 minutes in a centrifuge to remove proteins. The resulting sample was subjected to LC (liquid chromatography)/MS (mass spectrometry) measurement under the following measurement conditions.
Each compound concentration in blood plasma at each time of blood collection was calculated according to the internal standard method, and, area under the plasma concentration vs. time curve (AUCall (Area Under Curve)) was calculated according to the trapezoidal method.
The LC and MS systems used in the present test are as follows.
LC: LC20 or LC30 HPLC system manufactured by Shimadzu Corporation
Column: Phenomenex Kinetex C18 (50×2.1 mm, 2.6 μm)
Column temperature: 40° C.
Mobile phase A: aqueous solution with 0.1% formic acid, Mobile phase B: 50% acetonitrile/methanol solution with 0.1% formic acid

[3] = biological target: T2, Human recombinant trypsin (Homo sapiens, UniProt P07477); assay: Human trypsin inhibition test; format: biochemical; settings: 20 minutes after reaction start, read-out: Inhibition rate (trypsin); for inhibition at 0.001 µM: compound concentration 1 nM; for inhibition at 0.01 µM: compound concentration 10 nM; for inhibition at 0.1 µM: compound concentration 100 nM
T2 construct: purchased Wako Pure Chemical Industries, Ltd. 206-17171
How it was run: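 Trypsin diluted to 10 ng/mL in 0.1 M Tris-HCl pH8.0, 0.15 M NaCl, 10 mM CaCl2, 0.05% Brij35; substrate solution 40 μM Boc-Phe-Ser-Arg-MCA, compounds in 1% DMSO buffer. Fluorescence (ex 355/em 460 nm) read 20 min after enzyme addition; % inhibition versus no-compound and no-enzyme controls.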

[4] = 20 minutes after reaction start
[5] = compound concentration 10 nM, 20 minutes after reaction start
[6] = compound concentration 100 nM, 20 minutes after reaction start

T1 sequence (P98073 whole entry): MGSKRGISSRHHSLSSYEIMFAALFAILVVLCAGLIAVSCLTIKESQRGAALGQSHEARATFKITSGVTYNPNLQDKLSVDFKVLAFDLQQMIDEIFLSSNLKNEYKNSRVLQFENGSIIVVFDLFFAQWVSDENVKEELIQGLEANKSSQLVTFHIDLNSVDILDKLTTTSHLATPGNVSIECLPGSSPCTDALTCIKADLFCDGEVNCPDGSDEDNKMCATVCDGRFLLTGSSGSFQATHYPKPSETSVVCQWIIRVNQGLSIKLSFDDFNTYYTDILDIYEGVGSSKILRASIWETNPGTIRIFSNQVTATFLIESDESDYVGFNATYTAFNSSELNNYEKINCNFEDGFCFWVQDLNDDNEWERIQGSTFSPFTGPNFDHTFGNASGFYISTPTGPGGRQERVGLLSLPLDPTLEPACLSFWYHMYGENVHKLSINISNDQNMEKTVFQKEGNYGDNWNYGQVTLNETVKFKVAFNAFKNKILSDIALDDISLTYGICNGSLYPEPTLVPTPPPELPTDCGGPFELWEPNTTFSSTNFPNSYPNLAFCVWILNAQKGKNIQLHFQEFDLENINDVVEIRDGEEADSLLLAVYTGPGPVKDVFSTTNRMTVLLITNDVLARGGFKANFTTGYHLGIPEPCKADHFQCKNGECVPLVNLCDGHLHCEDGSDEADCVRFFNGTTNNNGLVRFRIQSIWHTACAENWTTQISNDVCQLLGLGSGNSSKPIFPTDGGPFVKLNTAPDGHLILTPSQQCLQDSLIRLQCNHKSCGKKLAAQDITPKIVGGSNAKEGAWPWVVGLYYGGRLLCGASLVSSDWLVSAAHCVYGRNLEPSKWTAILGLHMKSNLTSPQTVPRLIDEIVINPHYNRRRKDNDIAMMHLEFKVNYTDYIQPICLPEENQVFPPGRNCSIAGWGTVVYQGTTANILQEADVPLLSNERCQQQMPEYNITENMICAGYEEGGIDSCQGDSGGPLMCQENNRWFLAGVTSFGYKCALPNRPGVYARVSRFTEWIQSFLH

SMILES	inhibition at 0.001 µM [1, 4] [%]	inhibition at 0.01 µM [1, 5] [%]	inhibition at 0.1 µM [1, 6] [%]	inhibition at 0.001 µM [3] [%]	inhibition at 0.01 µM [3] [%]	inhibition at 0.1 µM [3] [%]	response vs control in vivo at 30 mg/kg (HFD-fed mouse) [%]	also measured
N=C(N)Nc1ccc(C(=O)Oc2ccc(CNS(=O)(=O)N(CCCN([C@@H](CC(=O)O)C(=O)O)S(=O)(=O)NCc3ccc(OC(=O)c4ccc(NC(=N)N)cc4)cc3)[C@@H](CC(=O)O)C(=O)O)cc2)cc1 [7-(b), (2S,2′)-2,2′-propane-1,3-diylbis((N-(4-((4-guanidinobenzoyl)oxy)benzyl)sulfamoyl)azanediyl)disuccinic acid]	≥ 50	≥ 50	≥ 50	≥ 50	≥ 50	≥ 50	≥ 130	inhibition in vivo at 100 mg/kg (DIO mouse; oral 100 mg/kg once daily for 2 weeks): ≥ 4%; AUC ([2]; 10 mg/kg): ≤ 100 ng·h/mL
N=C(N)Nc1ccc(C(=O)Oc2ccc(COC(=O)N(CCOCCOCCOCCOCCN(C(=O)OCc3ccc(OC(=O)c4ccc(NC(=N)N)cc4)cc3)C(CC(=O)O)C(=O)O)C(CC(=O)O)C(=O)O)cc2)cc1 (stereo not drawn) [10-(b), 3,18-bis(((4-((4-guanidinobenzoyl)oxy)benzyl)oxy)carbonyl)-6,9,12,15-tetraoxa-3,18-diazaicosane-1,2,19,20-tetracarboxylic acid trifluoroacetate]		≥ 50	≥ 50		≥ 50	≥ 50		response vs control in vivo at 79 mg/kg (HFD-fed mouse; single oral dose 79 mg/kg): ≥ 130%; inhibition in vivo at 87 mg/kg (DIO mouse; oral 87 mg/kg once daily for 2 weeks): ≥ 4%; AUC ([2]; 8 mg/kg): ≤ 100 ng·h/mL
N=C(N)Nc1ccc(C(=O)Oc2ccc(COC(=O)N(CC(=O)N[C@@H](CC(=O)O)C(=O)NCCOCCOCCOCCOCCNC(=O)[C@H](CC(=O)O)NC(=O)CN(Cc3cccc(C(=O)O)c3)C(=O)OCc3ccc(OC(=O)c4ccc(NC(=N)N)cc4)cc3)Cc3cccc(C(=O)O)c3)cc2)cc1 [14-(b), (3S,22S)-3,22-bis(2-((3-carboxybenzyl) (((4-((4-guanidinobenzoyl)oxy)benzyl)oxy)carbonyl)amino)acetamido)-4,21-dioxo-8,1,14,17-tetraoxa-5,20-diazatetracosane-1,24-dioic acid trifluoroacetate]		≥ 50	≥ 50	≥ 50	≥ 50	≥ 50		response vs control in vivo at 89 mg/kg (HFD-fed mouse; single oral dose 89 mg/kg): ≥ 130%; inhibition in vivo at 90 mg/kg (DIO mouse; oral 90 mg/kg once daily for 2 weeks): ≥ 4%
N=C(N)Nc1ccc(C(=O)Oc2ccc(COC(=O)N(Cc3cccc(C(=O)NCCOCCOCCOCCOCCNC(=O)c4cccc(CN(C(=O)OCc5ccc(OC(=O)c6ccc(NC(=N)N)cc6)cc5)[C@@H](CC(=O)O)C(=O)O)c4)c3)[C@@H](CC(=O)O)C(=O)O)cc2)cc1 [17-(b), (2S,2′S)-2,2′-(((5,8,11,14-tetraoxa-2,17-diazaoctadecane-1,18-dioyl)bis(3,1-phenylene))bis(methylene))bis((((4-((4-guanidinobenzoyloxy)benzyloxycarbonyl)azanediyl))disuccinic acid trifluoroacetate]				≥ 50	≥ 50	≥ 50		inhibition at 0.01 µM [1]: ≥ 50%; inhibition at 0.1 µM [1]: ≥ 50%; response vs control in vivo at 91 mg/kg (HFD-fed mouse; single oral dose 91 mg/kg): ≥ 130%; inhibition in vivo at 88 mg/kg (DIO mouse; oral 88 mg/kg once daily for 2 weeks): ≥ 4%; AUC ([2]; 9 mg/kg): ≤ 100 ng·h/mL

Now from value to compound, other results behind:

inhibition at 0.001 µM [1, 4] [%]	inhibition at 0.01 µM [1, 5] [%]	inhibition at 0.1 µM [1, 6] [%]	inhibition at 0.001 µM [3] [%]	inhibition at 0.01 µM [3] [%]	inhibition at 0.1 µM [3] [%]	SMILES	response vs control in vivo at 30 mg/kg (HFD-fed mouse) [%]	also measured
≥ 50	≥ 50	≥ 50	≥ 50	≥ 50	≥ 50	N=C(N)Nc1ccc(C(=O)Oc2ccc(CNS(=O)(=O)N(CCOCCN([C@@H](CC(=O)O)C(=O)O)S(=O)(=O)NCc3ccc(OC(=O)c4ccc(NC(=N)N)cc4)cc3)[C@@H](CC(=O)O)C(=O)O)cc2)cc1 [1-(b), (2S,2′S)-2,2′-((oxybis(ethane-2,1-diyl))bis((N-(4-((4-guanidinobenzoyl)oxy)benzyl)sulfamoyl)azanediyl))disuccinic acid]		response vs control in vivo at 87 mg/kg (HFD-fed mouse; single oral dose 87 mg/kg): ≥ 130%; inhibition in vivo at 30 mg/kg (DIO mouse; oral 30 mg/kg once daily for 2 weeks): ≥ 4%; AUC ([2]; 100 mg/kg): ≤ 100 ng·h/mL
	≥ 50	≥ 50		≥ 50	≥ 50	N=C(N)Nc1ccc(C(=O)Oc2ccc(CNS(=O)(=O)N(CCOCCOCCOCCOCCN([C@@H](CC(=O)O)C(=O)O)S(=O)(=O)NCc3ccc(OC(=O)c4ccc(NC(=N)N)cc4)cc3)[C@@H](CC(=O)O)C(=O)O)cc2)cc1 [4-(b), (2S,19S)-3,18-bis(N-(4-((4-guanidinobenzoyl)oxy)benzyl)sulfamoyl)-6,9,12,15-tetraoxa-3,18-diazaicosane-1,2,19,20-tetracarboxylic acid trifluoroacetate]		response vs control in vivo at 100 mg/kg (HFD-fed mouse; single oral dose 100 mg/kg): ≥ 130%; inhibition in vivo at 86 mg/kg (DIO mouse; oral 86 mg/kg once daily for 2 weeks): ≥ 4%; AUC ([2]; 10 mg/kg): ≤ 100 ng·h/mL
≥ 50	≥ 50	≥ 50	≥ 50	≥ 50	≥ 50	N=C(N)Nc1ccc2c(c1)CCCOc1c(cccc1C(=O)N(CCOCCOCCN(C(=O)c1cccc3c1OCCCc1cc(NC(=N)N)ccc1C(=O)O3)[C@@H](CC(=O)O)C(=O)O)[C@@H](CC(=O)O)C(=O)O)OC2=O [20-(b), (2S,13S)-3,12-bis(10-guanidino-13-oxo-6,7,8,13-tetrahydrodibenzo[b,f][1,4]dioxecin-4-carbonyl)-6,9-dioxa-3,12-diazatetradecane-1,2,13,14-tetracarboxylic acid trifluoroacetate]	≥ 130	inhibition in vivo at 25 mg/kg (DIO mouse): ≥ 4%
≥ 50	≥ 50	≥ 50		≥ 50	≥ 50	N=C(N)Nc1ccc2c(c1)CCCOc1c(cccc1C(=O)N(CCOCCOCCN(C(=O)c1cccc3c1OCCCc1cc(NC(=N)N)ccc1C(=O)O3)[C@H](CC(=O)O)C(=O)O)[C@H](CC(=O)O)C(=O)O)OC2=O [21-(b), (2R,13R)-3,12-bis(10-guanidino-13-oxo-6,7,8,13-tetrahydrodibenzo[b,f][1,4]dioxecin-4-carbonyl)-6,9-dioxa-3,12-diazatetradecane-1,2,13,14-tetracarboxylic acid trifluoroacetate]	≥ 130	inhibition in vivo at 25 mg/kg (DIO mouse): ≥ 4%
≥ 50	≥ 50	≥ 50		≥ 50	≥ 50	N=C(N)Nc1ccc2c(c1)CCCOc1c(cccc1C(=O)N(CCOCCOCCOCCN(C(=O)c1cccc3c1OCCCc1cc(NC(=N)N)ccc1C(=O)O3)[C@@H](CC(=O)O)C(=O)O)[C@@H](CC(=O)O)C(=O)O)OC2=O [27-(b), (2S,165)-3,15-bis(10-guanidino-13-oxo-6,7,8,13-tetrahydrodibenzo[b,f][1,4]dioxecin-4-carbonyl)-6,9,12-trioxa-3,15-diazaheptadecane-1,2,16,17-tetracarboxylic acid]		response vs control in vivo at 50 mg/kg (HFD-fed mouse; single oral dose 50 mg/kg): ≥ 130%; inhibition in vivo at 50 mg/kg (DIO mouse; oral 50 mg/kg once daily for 2 weeks): ≥ 4%
